Data on 4 compounds can be found in patent US20230183292A1, “IMMUNOMODULATORS” (priority 2020, published 2023).

Each structure is given as a SMILES string. Starred links: 1 amine or outer side, 2 acyl side, 3 side chain; linkers in the order of their positions; H or OH if unused. Positions of bridges follow the written chain, without caps; N, C: chain ends. Non-standard residues stand in square brackets, D forms with d. Residues, ends and D or L forms follow the SMILES beside them. X6 = C[C@H](CCC(=O)O)[C@H]1CC[C@H]2[C@@H]3C(=O)C[C@@H]4CC(NCC[C@H](N[*:1])C(=O)[*:2])CC[C@]4(C)[C@H]3CC(=O)[C@]12C; X3 = C[C@H](CCC(=O)O)[C@H]1CC[C@H]2[C@@H]3C(=O)C[C@@H]4CC(NC[C@H](N[*:1])C(=O)[*:2])CC[C@]4(C)[C@H]3CC(=O)[C@]12C; X26 = C[C@H](CCC(=O)O)[C@H]1CC[C@H]2[C@@H]3C(=O)C[C@@H]4CC(NCC[C@H](N[*:1])C(=O)[*:2])CC[C@]4(C)[C@H]3CC[C@]12C; X25 = C[C@H](CCC(=O)O)[C@H]1CC[C@H]2[C@@H]3C(=O)C[C@@H]4CC(NC[C@H](N[*:1])C(=O)[*:2])CC[C@]4(C)[C@H]3CC[C@]12C; Trp(1-CH2COOH) = N[C@@H](Cc1cn(CC(=O)O)c2ccccc12)C(=O)O; X28 = O=C(C[C@@H](Cc1ccc(O)cc1)C(=O)[*:1])C[*:2]; Hyp = O=C(O)[C@@H]1C[C@@H](O)CN1; NMeNle = CCCC[C@H](NC)C(=O)O; NMeA = CN[C@@H](C)C(=O)O; Dab = NCC[C@H](N)C(=O)O

The target in the assay is T1, PD-1/PD-L1 (Homo sapiens, UniProt Q9NZQ7).
T1 construct: TVMV protease site (C); made in house; host or cells: HEK293T cells
Briefly: PD-1/PD-L1 Homogenous Time-Resolved Fluorescence (HTRF) binding assay. As to conditions: PD-L1-His 10 nM, PD-1-Ig 20 nM; read-out: HTRF IC50. The essentials: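 Inhibitors pre-incubated 15 min with PD-L1-His (10 nM final) in dPBS, 0.1% BSA, 0.05% Tween-20, then 15 min with PD-1-Ig (20 nM final). Eu-cryptate anti-Ig (1 nM) and APC anti-His (20 nM) added, 30 min equilibration; HTRF 665/620 nm ratio. Human ECD proteins from HEK293T.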

T1 sequence (Q9NZQ7 18-239): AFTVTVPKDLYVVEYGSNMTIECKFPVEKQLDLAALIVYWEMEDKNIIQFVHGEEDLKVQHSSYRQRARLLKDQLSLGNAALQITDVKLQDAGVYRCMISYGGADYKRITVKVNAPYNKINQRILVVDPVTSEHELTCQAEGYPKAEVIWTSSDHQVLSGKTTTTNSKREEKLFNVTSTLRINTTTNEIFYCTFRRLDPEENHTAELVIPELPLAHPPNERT

Take `CCCC[C@H]1C(=O)N(C)[C@@H](CCCC)C(=O)N[C@@H](CC(C)C)C(=O)N[C@H](C(=O)NCC(N)=O)CSCC(=O)N[C@@H](Cc2ccc(O)cc2)C(=O)N(C)[C@@H](C)C(=O)N[C@@H](CC(N)=O)C(=O)N2CCC[C@H]2C(=O)N[C@@H](CNC2CC[C@@]3(C)[C@H](CC(=O)[C@@H]4[C@@H]3CC(=O)[C@]3(C)[C@@H]([C@H](C)CCC(=O)O)CC[C@@H]43)C2)C(=O)N[C@@H](CC(C)C)C(=O)N2C[C@H](O)C[C@H]2C(=O)N[C@@H](Cc2c[nH]c3ccccc23)C(=O)N[C@@H](CCNC2CC[C@@]3(C)[C@H](CC(=O)[C@@H]4[C@@H]3CC(=O)[C@]3(C)[C@@H]([C@H](C)CCC(=O)O)CC[C@@H]43)C2)C(=O)N[C@@H](Cc2cn(CC(=O)O)c3ccccc23)C(=O)N1C` (stereo partly shown) [Example 3003] ({CH2CO}-Y[NMeA]NP[X3]L[Hyp]W[X6][Trp(1-CH2COOH)][NMeNle][NMeNle]LCG-NH2; thioether N-14): the half-maximal inhibitory concentration (IC50) worked out at 17 nM. `CCCC[C@H]1C(=O)N(C)[C@@H](CCCC)C(=O)N[C@@H](CC(C)C)C(=O)N[C@H](C(=O)NCC(N)=O)CSCC(=O)C[C@@H](Cc2ccc(O)cc2)C(=O)N(C)[C@@H](C)C(=O)N[C@@H](CC(N)=O)C(=O)N2CCC[C@H]2C(=O)N[C@@H](CNC2CC[C@@]3(C)[C@H](CC(=O)[C@@H]4[C@@H]3CC[C@]3(C)[C@@H]([C@H](C)CCC(=O)O)CC[C@@H]43)C2)C(=O)N[C@@H](CC(C)C)C(=O)N2C[C@H](O)C[C@H]2C(=O)N[C@@H](Cc2c[nH]c3ccccc23)C(=O)N[C@@H](CCN)C(=O)N[C@@H](Cc2cn(CC(=O)O)c3ccccc23)C(=O)N1C` (stereo partly shown) [Example 3004] ([NMeA]NP[X25]L[Hyp]W[Dab][Trp(1-CH2COOH)][NMeNle][NMeNle]LCG-NH2; linker N-13 via X28): the IC50 turned out to be 41 nM. On to `CCCC[C@H]1C(=O)N(C)[C@@H](CCCC)C(=O)N[C@@H](CC(C)C)C(=O)N[C@H](C(=O)NCC(N)=O)CSCC(=O)N[C@@H](Cc2ccc(O)cc2)C(=O)N(C)[C@@H](C)C(=O)N[C@@H](CC(N)=O)C(=O)N2CCC[C@H]2C(=O)N[C@@H](CNC2CC[C@@]3(C)[C@H](CC(=O)[C@@H]4[C@@H]3CC(=O)[C@]3(C)[C@@H]([C@H](C)CCC(=O)O)CC[C@@H]43)C2)C(=O)N[C@@H](CC(C)C)C(=O)N2C[C@H](O)C[C@H]2C(=O)N[C@@H](Cc2c[nH]c3ccccc23)C(=O)N[C@@H](CCN)C(=O)N[C@@H](Cc2cn(CC(=O)O)c3ccccc23)C(=O)N1C` (stereo partly shown) [Example 3005] ({CH2CO}-Y[NMeA]NP[X3]L[Hyp]W[Dab][Trp(1-CH2COOH)][NMeNle][NMeNle]LCG-NH2; thioether N-14), for which the IC50 came to 13 nM. For `CCCC[C@H]1C(=O)N(C)[C@@H](CCCC)C(=O)N[C@@H](CC(C)C)C(=O)N[C@H](C(=O)NCC(N)=O)CSCC(=O)N[C@@H](Cc2ccc(O)cc2)C(=O)N(C)[C@@H](C)C(=O)N[C@@H](CC(N)=O)C(=O)N2CCC[C@H]2C(=O)N[C@@H](CNC2CC[C@@]3(C)[C@H](CC(=O)[C@@H]4[C@@H]3CC[C@]3(C)[C@@H]([C@H](C)CCC(=O)O)CC[C@@H]43)C2)C(=O)N[C@@H](CC(C)C)C(=O)N2C[C@H](O)C[C@H]2C(=O)N[C@@H](Cc2c[nH]c3ccccc23)C(=O)N[C@@H](CCNC2CC[C@@]3(C)[C@H](CC(=O)[C@@H]4[C@@H]3CC[C@]3(C)[C@@H]([C@H](C)CCC(=O)O)CC[C@@H]43)C2)C(=O)N[C@@H](Cc2cn(CC(=O)O)c3ccccc23)C(=O)N1C` (stereo partly shown) [Example 3006] ({CH2CO}-Y[NMeA]NP[X25]L[Hyp]W[X26][Trp(1-CH2COOH)][NMeNle][NMeNle]LCG-NH2; thioether N-14) the value was 11 nM.

The term IC50 denotes the concentration that inhibits the measured activity by half.
